Laboratory results published in ChEMBL document CHEMBL2346648, “A series of thiazole derivatives bearing thiazolidin-4-one as non-competitive ADAMTS-5 (aggrecanase-2) inhibitors” (Bioorg Med Chem Lett, 2013).

How the values were obtained:
[1] = molecular target: T1, A disintegrin and metalloproteinase with thrombospondin motifs 5 (Bos taurus) (UniProt Q9TT92); test: Ex vivo inhibition of ADAMTS-5-mediated aggrecan degradation in IL-1-stimulated bovine cartilage explant at 30 uM
T1 sequence (whole entry): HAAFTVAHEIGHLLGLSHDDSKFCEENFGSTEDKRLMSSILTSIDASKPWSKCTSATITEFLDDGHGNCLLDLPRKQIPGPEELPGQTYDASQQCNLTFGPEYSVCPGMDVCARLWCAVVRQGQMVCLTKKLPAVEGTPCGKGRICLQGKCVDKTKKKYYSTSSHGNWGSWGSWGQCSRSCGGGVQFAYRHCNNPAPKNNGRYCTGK

[2] = molecular target: T2, A disintegrin and metalloproteinase with thrombospondin motifs 5 (Homo sapiens, UniProt Q9UNA0); test: Inhibition of human His-tagged ADAMTS-5 using QF-peptide as substrate by FRET method
T2 sequence (Q9UNA0 whole entry): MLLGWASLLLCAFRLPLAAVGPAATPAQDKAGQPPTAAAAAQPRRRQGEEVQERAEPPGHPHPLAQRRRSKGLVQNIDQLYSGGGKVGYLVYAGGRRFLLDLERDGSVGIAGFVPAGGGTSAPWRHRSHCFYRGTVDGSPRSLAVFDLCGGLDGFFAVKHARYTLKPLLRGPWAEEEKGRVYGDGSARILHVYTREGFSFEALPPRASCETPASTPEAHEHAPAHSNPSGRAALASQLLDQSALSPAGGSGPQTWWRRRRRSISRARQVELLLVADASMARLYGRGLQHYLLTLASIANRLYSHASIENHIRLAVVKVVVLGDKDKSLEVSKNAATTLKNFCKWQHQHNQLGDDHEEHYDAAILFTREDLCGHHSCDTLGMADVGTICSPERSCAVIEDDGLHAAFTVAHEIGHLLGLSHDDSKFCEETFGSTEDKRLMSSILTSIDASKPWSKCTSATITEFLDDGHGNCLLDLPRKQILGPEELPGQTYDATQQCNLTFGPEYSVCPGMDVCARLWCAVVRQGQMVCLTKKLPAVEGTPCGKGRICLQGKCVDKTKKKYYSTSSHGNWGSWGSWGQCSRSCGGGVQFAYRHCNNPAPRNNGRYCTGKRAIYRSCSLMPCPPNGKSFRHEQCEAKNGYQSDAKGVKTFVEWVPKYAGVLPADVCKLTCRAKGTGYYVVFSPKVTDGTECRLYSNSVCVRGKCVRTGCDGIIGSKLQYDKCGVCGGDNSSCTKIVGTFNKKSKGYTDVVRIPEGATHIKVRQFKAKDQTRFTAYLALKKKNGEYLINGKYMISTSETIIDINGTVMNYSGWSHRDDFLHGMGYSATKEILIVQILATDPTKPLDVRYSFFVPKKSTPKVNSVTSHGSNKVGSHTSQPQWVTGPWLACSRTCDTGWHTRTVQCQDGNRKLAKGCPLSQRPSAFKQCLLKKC

[3] = molecular target: T3, A disintegrin and metalloproteinase with thrombospondin motifs 13 (Homo sapiens, UniProt Q76LX8); test: Inhibition of ADAMTS-13 (unknown origin)
T3 sequence (Q76LX8 whole entry): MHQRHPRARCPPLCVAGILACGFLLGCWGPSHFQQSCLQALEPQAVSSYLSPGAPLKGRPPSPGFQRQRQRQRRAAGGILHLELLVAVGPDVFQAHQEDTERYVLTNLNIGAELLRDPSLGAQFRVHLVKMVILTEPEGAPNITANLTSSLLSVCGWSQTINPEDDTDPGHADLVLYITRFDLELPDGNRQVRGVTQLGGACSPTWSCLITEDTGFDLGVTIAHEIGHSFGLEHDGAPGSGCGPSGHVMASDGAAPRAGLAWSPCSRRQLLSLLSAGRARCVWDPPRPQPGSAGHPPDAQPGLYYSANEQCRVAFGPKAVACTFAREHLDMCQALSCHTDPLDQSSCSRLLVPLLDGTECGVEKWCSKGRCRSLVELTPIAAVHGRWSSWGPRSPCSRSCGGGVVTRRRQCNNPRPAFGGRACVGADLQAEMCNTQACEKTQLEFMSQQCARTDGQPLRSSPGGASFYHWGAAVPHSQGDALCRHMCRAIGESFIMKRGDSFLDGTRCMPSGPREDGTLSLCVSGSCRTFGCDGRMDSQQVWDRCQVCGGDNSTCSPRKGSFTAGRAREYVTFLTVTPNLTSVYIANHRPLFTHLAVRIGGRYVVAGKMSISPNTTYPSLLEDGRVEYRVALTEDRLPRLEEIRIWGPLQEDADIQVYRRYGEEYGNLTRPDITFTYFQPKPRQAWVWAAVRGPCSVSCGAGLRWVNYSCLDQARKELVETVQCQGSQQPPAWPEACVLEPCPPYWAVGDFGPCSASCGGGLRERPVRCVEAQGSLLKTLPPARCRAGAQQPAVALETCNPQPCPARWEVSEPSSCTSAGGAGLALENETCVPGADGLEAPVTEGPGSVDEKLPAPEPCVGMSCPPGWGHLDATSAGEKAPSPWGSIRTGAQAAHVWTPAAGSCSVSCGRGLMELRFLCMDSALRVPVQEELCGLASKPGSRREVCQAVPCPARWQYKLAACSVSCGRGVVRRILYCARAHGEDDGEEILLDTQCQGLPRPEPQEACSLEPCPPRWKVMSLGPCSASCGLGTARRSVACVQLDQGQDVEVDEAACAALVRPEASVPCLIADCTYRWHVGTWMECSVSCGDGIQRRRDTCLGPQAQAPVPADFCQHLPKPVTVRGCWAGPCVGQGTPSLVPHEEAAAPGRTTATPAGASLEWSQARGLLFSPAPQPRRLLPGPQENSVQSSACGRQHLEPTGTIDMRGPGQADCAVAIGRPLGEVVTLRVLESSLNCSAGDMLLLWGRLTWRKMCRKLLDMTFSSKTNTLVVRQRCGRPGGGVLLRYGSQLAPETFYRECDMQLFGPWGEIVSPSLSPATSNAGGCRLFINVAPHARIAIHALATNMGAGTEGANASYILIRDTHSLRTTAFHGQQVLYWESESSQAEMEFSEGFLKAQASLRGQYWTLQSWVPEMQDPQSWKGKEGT

[4] = molecular target: Disintegrin and metalloproteinase domain-containing protein 17 (Homo sapiens, UniProt P78536); test: Inhibition of TACE (unknown origin)
Stromelysin-1 = Stromelysin-1 (Homo sapiens, UniProt P08254); test: Inhibition of MMP3 (unknown origin) by FRET method
Chain of Stromelysin-1 (P08254 whole entry): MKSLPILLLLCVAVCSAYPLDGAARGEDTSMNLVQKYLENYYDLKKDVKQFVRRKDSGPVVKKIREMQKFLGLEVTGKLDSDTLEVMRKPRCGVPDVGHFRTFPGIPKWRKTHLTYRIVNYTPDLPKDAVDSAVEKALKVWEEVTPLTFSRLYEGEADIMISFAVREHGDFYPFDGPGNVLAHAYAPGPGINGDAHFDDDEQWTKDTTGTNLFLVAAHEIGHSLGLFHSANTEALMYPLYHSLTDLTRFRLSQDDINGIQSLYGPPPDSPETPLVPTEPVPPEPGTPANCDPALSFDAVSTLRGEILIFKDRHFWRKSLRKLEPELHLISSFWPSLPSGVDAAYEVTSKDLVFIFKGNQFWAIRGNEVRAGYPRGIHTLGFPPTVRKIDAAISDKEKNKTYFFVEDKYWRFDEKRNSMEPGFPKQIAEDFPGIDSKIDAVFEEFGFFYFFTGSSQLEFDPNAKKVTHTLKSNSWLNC

Chain of Disintegrin and metalloproteinase domain-containing protein 17 (P78536 whole entry, the tested form may be a part): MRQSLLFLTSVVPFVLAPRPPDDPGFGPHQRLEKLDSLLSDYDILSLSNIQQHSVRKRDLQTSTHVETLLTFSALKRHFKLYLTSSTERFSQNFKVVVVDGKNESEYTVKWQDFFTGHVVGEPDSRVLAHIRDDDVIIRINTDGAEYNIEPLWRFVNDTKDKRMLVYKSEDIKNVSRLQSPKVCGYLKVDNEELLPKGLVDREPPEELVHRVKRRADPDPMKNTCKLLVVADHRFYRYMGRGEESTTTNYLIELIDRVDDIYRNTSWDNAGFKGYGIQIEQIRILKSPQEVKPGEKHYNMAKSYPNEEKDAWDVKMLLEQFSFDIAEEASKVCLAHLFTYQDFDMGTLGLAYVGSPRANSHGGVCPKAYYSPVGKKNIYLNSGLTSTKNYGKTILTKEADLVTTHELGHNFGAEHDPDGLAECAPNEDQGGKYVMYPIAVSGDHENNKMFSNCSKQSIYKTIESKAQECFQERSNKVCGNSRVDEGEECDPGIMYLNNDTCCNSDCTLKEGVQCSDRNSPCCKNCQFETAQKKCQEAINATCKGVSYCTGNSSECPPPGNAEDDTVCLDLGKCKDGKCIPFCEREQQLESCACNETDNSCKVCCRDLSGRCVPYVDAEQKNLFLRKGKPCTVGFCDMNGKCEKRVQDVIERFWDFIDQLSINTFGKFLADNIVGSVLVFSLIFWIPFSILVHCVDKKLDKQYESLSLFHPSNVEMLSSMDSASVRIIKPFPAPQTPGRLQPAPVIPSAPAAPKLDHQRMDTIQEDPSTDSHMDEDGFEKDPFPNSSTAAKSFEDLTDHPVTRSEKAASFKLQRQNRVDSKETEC

- inhibition [1]: 66%
- IC50 [2]: 0.23 µM
- IC50 [3]: 20 µM
- IC50 [4]: > 30 µM
- IC50 (Stromelysin-1): > 30 µM
SMILES: O=C(O)CCc1sc(/C=C2\NC(=O)CS2)nc1-c1ccccn1
